Measurements as given in US20030092640A1, “Azalide antibiotic compositions” (Pfizer Inc., priority 2001, published 2003).
Converted amounts (≈) assume the structure as drawn. “And” between values parts separate entries of the source, which are not always exact repeats. Equal entries are not always repeated.

Tests used:
[1] = tested on: E. coli; assay: Assay I liquid dilution MIC, E. coli; type: cell-based; settings: Escherichia coli, 18 h, read-out: MIC against E. coli
[2] = tested on: Pasteurella multocida (strain 59A067); assay: Assay I liquid dilution MIC, P. multocida; type: cell-based; settings: 100% inhibition of growth, 37° C., 18 hours, BHI broth, read-out: MIC against P. multocida
Description: This assay employs conventional methodology and interpretation criteria and is designed to test for activity against Pasteurella multocida, using the liquid dilution method in microliter format. A single colony of P. multocida (strain 59A067) is inoculated into 5 mL of brain heart infusion (BHI) broth. The azalide formulation is prepared by solubilizing 1 mg of the azalide composition in 125 μL of dimethylsulfoxide (DMSO). Dilutions of the azalide compositions are prepared using uninoculated BHI broth. The concentrations of the azalide compounds used range from 200 μg/mL to 0.098 μg/mL by two-fold serial dilutions. The P. multocida inoculated BHI is diluted with uninoculated BHI broth to make a 10^4 cell suspension per 200 μL. The BHI cell suspensions are mixed with respective serial dilutions of the azalide compositions, and incubated at 37° C. for 18 hours.
Accordingly, as expected, the azalide compounds used in this invention are active against a variety of organisms.

[3] = tested on: S. aureus; assay: Assay I liquid dilution MIC, S. aureus; type: cell-based; settings: Staphylococcus aureus, 18 h, read-out: MIC against S. aureus
[4] = Potency retention (HPLC stability) of azalide in aqueous propylene glycol/citric acid compositions; type: physicochemical; settings: 0.1 M citric acid
Description: As used in this application, the term “potency” means the amount of an azalide compound present in a “test” sample subjected to a particular set of experimental conditions during a particular time interval, relative to the amount of the azalide compound present in an otherwise identical “control” sample stored at 5° C. for the same time interval. Upon completion of the experiment for a given sample, the test and control samples are typically subjected to appropriate processing steps to allow accurate determination of the amount of the azalide compound. Relative amounts of azalide compound in the test and control samples may be determined by any number of means which are well-known in the art, such as high performance liquid chromatography (“HPLC”), nuclear magnetic resonance spectroscopy (“NMR”), gas chromatography (“GC”), mass spectrometry (“MS”), liquid chromatography/mass spectrometry (“LC/MS”), GC/MS, and thin layer chromatography (“TLC”).
Preferred methods for determining that a stable azalide composition has been obtained include gel chromatography, thin-layer chromatography, and HPLC. More preferably, HPLC is used. To monitor the compositions of the invention for potency, after dilution to final volume and sterilization by filtration, the compositions were subdivided into 3.5 mL glass vials which were sealed with rubber stoppers and an aluminum crimp. For the tests reported below, approximately 10 vials containing 2.5 mL each were prepared.
Approximately 30 mL of each composition listed in Table 1 below was prepared as follows:
1) Sufficient citric acid was added to Water for Injection to produce a solution having a final concentration of acid of 0.1 M;
2) The compound of formula 1a or 1b was added in an amount to produce a final azalide concentration of 100 mg/mL (0.12 mmol/mL of the composition), and the mixture was stirred until the azalide was dissolved;
3) Propylene glycol was added to produce a concentration in the final mixture of from about 25% to about 75% by weight relative to the total volume;
4) The pH was adjusted by addition of 10% aqueous HCl or 10 M aqueous NaOH as necessary;
5) Water for Injection was added to bring the volume to 30 mL;
6) Each sample was subdivided by filtration through a 0.22 micron Millex GV filter into 3.5 mL glass vials which were each sealed with a rubber stopper and an overseal consisting of an aluminum crimp. Approximately 10 vials containing 2.5 mL each were prepared for each sample.
To monitor the stability of the azalide compositions, vials were assayed by HPLC after exposure to elevated temperatures for a period of time. Aliquots were removed from vials and diluted with a mixture of 15% 10 mM potassium phosphate buffer, pH 6.5, 85% 1:1 (v/v) acetonitrile:methanol to a concentration of approximately 1.0 mg of the compound of formula 1 per mL total sample volume. Diluted samples were subjected to chromatography in a Waters Alliance 2690 HPLC system having a 2487 UV detector. The column was a Waters Symmetry C-18, 5 micron (250×4.6 mm), the mobile phase was the same as the phosphate/acetonitrile/methanol diluent above and the flow rate was 1 mL/minute. Peaks were detected by monitoring ultraviolet absorption at 210 nm. Relative amounts of azalide compound in the experimental samples and the controls were determined by taking the ratio of their relative chromatogram-peak areas. Although HPLC was used in this experiment, other known methods, including NMR, GC, MS, LC/MS, GC/MS, and TLC can be used to evaluate the potency of the compound of formula 1.
The results are reported in Table 1 below as a percentage of the compound of formula 1 remaining after exposure to various temperature and duration conditions, relative to the amount of the compound present in an otherwise identical sample stored at 5° C. for the same time interval.

[5] = preparation 1: propylene glycol 50 w/v %, pH 4.5, 100 mg/mL azalide
[6] = preparation 2: propylene glycol 25 w/v %, pH 5.0, 100 mg/mL azalide
[7] = preparation 3: propylene glycol 75 w/v %, pH 5.0, 100 mg/mL azalide
[8] = preparation 7: propylene glycol 25 w/v %, pH 6.0, 100 mg/mL azalide
[9] = preparation 8: propylene glycol 75 w/v %, pH 6.0, 100 mg/mL azalide
[10] = preparation 9: propylene glycol 50 w/v %, pH 6.5, 100 mg/mL azalide
[11] = preparations 4, 5, 6: propylene glycol 50 w/v %, pH 5.5, 100 mg/mL azalide

SMILES: CC[C@H]1OC(=O)[C@H](C)[C@@H](O[C@H]2C[C@@](C)(OC)[C@](O)(CNC(C)C)[C@H](C)O2)[C@H](C)[C@@H](O[C@@H]2O[C@H](C)C[C@H](N(C)C)[C@H]2O)[C@](C)(O)C[C@@H](C)CN(C)[C@H](C)[C@@H](O)[C@]1(C)O [Compound 1a, 1-Oxa-6-azacyclopentadecan-15-one, 13-[[2,6-dideoxy-3-C-methyl-3-O-methyl-4-C-[[(1-methylethyl)amino]methyl]-α-L-ribo-hexopyranosyl]oxy]-2-ethyl-3,4,10-trihydroxy-3,5,6,8,10,12,14-heptamethyl-11-[[3,4,6-trideoxy-3-(dimethylamino)-β-D-xylo-hexopyranosyl]oxy]-, (2R,3S,4R,5R,8R,10R,11R,12S,13S,14R)-]
- MIC [1]: 0.39 µg/mL (≈ 0.476 µM)
- MIC [2]: 0.05 µg/mL (≈ 0.061 µM)
- MIC [3]: 0.2 µg/mL (≈ 0.244 µM)
- Potency (% of 5° C.) 6 weeks, 50° C. [4, 5]: 91.9%
- Potency (% of 5° C.) 12 weeks, 50° C. [4, 5]: 91.3%
- Potency (% of 5° C.) 6 weeks, 50° C. [4, 6]: 93.6%
- Potency (% of 5° C.) 12 weeks, 50° C. [4, 6]: 87.9%
- Potency (% of 5° C.) 6 weeks, 50° C. [4, 7]: 96.0%
- Potency (% of 5° C.) 12 weeks, 50° C. [4, 7]: 102.6%
- Potency (% of 5° C.) 6 weeks, 50° C. [4, 8]: 90.6%
- Potency (% of 5° C.) 12 weeks, 50° C. [4, 8]: 85.7%
- Potency (% of 5° C.) 6 weeks, 50° C. [4, 9]: 89.5%
- Potency (% of 5° C.) 12 weeks, 50° C. [4, 9]: 89.8%
- Potency (% of 5° C.) 6 weeks, 50° C. [4, 10]: 84.1%
- Potency (% of 5° C.) 12 weeks, 50° C. [4, 10]: 75.9%
- Potency (% of 5° C.) 6 weeks, 50° C. [4, 11]: 96.3% and 95.6% and 93.9%
- Potency (% of 5° C.) 12 weeks, 50° C. [4, 11]: 92.9% and 91.4% and 90.4%

SMILES: CC[C@H]1OC(=O)[C@H](C)[C@@H](O[C@H]2C[C@@](C)(OC)[C@](O)(CN(C)CC)[C@H](C)O2)[C@H](C)[C@@H](O[C@@H]2O[C@H](C)C[C@H](N(C)C)[C@H]2O)[C@](C)(O)C[C@@H](C)CN(C)[C@H](C)[C@@H](O)[C@]1(C)O [Compound 1b, 1-Oxa-6-azacyclopentadecan-15-one, 13-[[2,6-dideoxy-4-C-[(ethylmethylamino)methyl]-3-C-methyl-3-O-methyl-α-L-ribo-hexopyranosyl]oxy]-2-ethyl-3,4,10-trihydroxy-3,5,6,8,10,12,14-heptamethyl-11-[[3,4,6-trideoxy-3-(dimethylamino)-β-D-xylo-hexopyranosyl]oxy]-, (2R,3S,4R,5R,8R,10R,11R,12S,13S,14R)-]
- MIC [1]: 0.39 µg/mL (≈ 0.476 µM)
- MIC [2]: 0.05 µg/mL (≈ 0.061 µM)
- MIC [3]: 0.39 µg/mL (≈ 0.476 µM)
- Potency (% of 5° C.) 6 weeks, 50° C. [4, 5]: 96.1%
- Potency (% of 5° C.) 12 weeks, 50° C. [4, 5]: 92.1%
- Potency (% of 5° C.) 6 weeks, 50° C. [4, 6]: 96.5%
- Potency (% of 5° C.) 12 weeks, 50° C. [4, 6]: 92.4%
- Potency (% of 5° C.) 6 weeks, 50° C. [4, 7]: 98.8%
- Potency (% of 5° C.) 12 weeks, 50° C. [4, 7]: 96.1%
- Potency (% of 5° C.) 6 weeks, 50° C. [4, 8]: 90.0%
- Potency (% of 5° C.) 12 weeks, 50° C. [4, 8]: 81.5%
- Potency (% of 5° C.) 6 weeks, 50° C. [4, 9]: 93.8%
- Potency (% of 5° C.) 12 weeks, 50° C. [4, 9]: 94.0%
- Potency (% of 5° C.) 6 weeks, 50° C. [4, 10]: 86.5%
- Potency (% of 5° C.) 12 weeks, 50° C. [4, 10]: 76.5%
- Potency (% of 5° C.) 6 weeks, 50° C. [4, 11]: 94.9% and 93.0% and 93.3%
- Potency (% of 5° C.) 12 weeks, 50° C. [4, 11]: 91.8% and 96.1% and 95.3%
